Biological target: T1, LRPPRC (endogenous, A549 cells) (Homo sapiens, UniProt P42704)
T1 construct: endogenous protein in A549 lung adenocarcinoma cells; no tag
Assay: cellular thermal shift assay (CETSA), immunoblot
Format: cell-based
Conditions: 40 μM GAA vs DMSO

With `Cc1cc2c(C(C)C)c(O)c(O)c(C=O)c2c(O)c1-c1c(C)cc2c(C(C)C)c(O)c(O)c(C=O)c2c1O` [GAA] the CETSA thermal stabilization was “GAA could increase the thermal stabilization of LRPPRC”.
